Experimental data reported in article PMC12389646, “Design, Synthesis, and Bioactivity Assessment of Modified Vemurafenib Analog” (Pharmaceuticals, 2025).

Assays:
[1] = system: human melanoma A375 cells; assay: MTS cell viability assay, A375; assay type: cell-based; settings: A-375, 24 h treatment, 0.01-10 μM tested
Procedure: (§1) The human cutaneous melanoma cancer cell line A375, obtained from the American Type Culture Collection (ATCC, Rockville, MD, USA) and human embryonic kidney HEK293T cell line, obtained from Rio de Janeiro Cell Bank (BCRJ, Rio de Janeiro, Brazil), were cultured in Dulbecco’s Modified Eagle’s Medium (DMEM, Sigma-Aldrich, St. Louis, MO, USA) supplemented with L-glutamine (2 mM), 10% fetal bovine serum (FBS), 50 IU/mL penicillin and 50 μg/mL streptomycin (Sigma-Aldrich, St. Louis, MO, USA). Cells were maintained at 37 °C in a humidified atmosphere containing 5% CO2. Low cell passages (between 5 and 20) were used in the present study.
(§2) Cell viability was measured using an MTS method based on the conversion of the tetrazolium salt MTS (3-(4,5-dimethylthiazol-2-yl)-5-(3-carboxymethoxyphenyl)-2-(4-sulfophenyl)-2H-tetrazolium, Sigma-Aldrich, St. Louis, MO, USA) to a purple formazan in the presence of phenazine methosulfate. The enzymes responsible are NADPH-dependent dehydrogenases, which are active in viable cells. Briefly, cells (5 × 10^4/well) were seeded in 96-well plates in medium with 10% FBS; after 24 h, the complete medium was replaced with fresh medium containing 1% FBS and incubated for 24 h. Fresh stock solutions were prepared on the day of the experiment, and the cells were treated with different concentrations of vemurafenib and analogs (0.01, 0.1, 0.5, 1, 5, and 10 μM). Effects were evaluated after 24 h. Untreated cells were incubated as controls. Following drug exposure, MTS was added, and the absorbance was measured at 570 nm using a microplate reader (CLARIOStar Plus, BMG LabTech, Ortenberg, Germany).
(§3) All the values of in vitro experiments are presented as the mean ± standard error of three independent experiments. Statistical analyses were performed via a one-way ANOVA with Dunnett’s post hoc test, and statistical significance was defined as * p < 0.05. IC50 values were calculated by non-linear regression analysis using an Inhibitor vs. normalized response model curve fit, as implemented. Statistical analyses were performed with GraphPad Prism 10.1.2 (GraphPad Software Inc., San Diego, CA, USA).

MMP-2 = assay: Gelatin zymography, MMP-2 in A375 conditioned media; assay type: cell-based, human; settings: A375 cells, 1 μM and 5 μM, 24 h
Procedure: (§4) The potential effects of vemurafenib and its analogs on MMP-2 and MMP-9 activity in A375 cells were evaluated using gelatin zymography to detect gelatinolytic activity in conditioned media.
(§5) Gelatin zymography was carried out according to [30], using 7.5% SDS-polyacrylamide gels with 0.2% (w/v) gelatin. SDS-PAGE was run at 100 V at room temperature. Following electrophoresis, the gels were removed and placed in 2.5% (v/v) Triton X-100 to renature enzymes for 60 min. Then, gels were incubated in 50 mM Tris-HCl, 1 μM ZnCl2, 5 mM CaCl2, pH 7.5, overnight, to allow sufficient time for genatinolytic activity to occur. Following overnight incubation at 37 °C, gels were incubated in a staining solution (0.5% (v/v) Coomassie blue in a 40% methanol-10% acetic acid-water mixture) for 60 min. Following incubation, the staining solution, the gels were washed with the destaining solution (without coomassie blue) until the time to start to see the bands. Then imaged with a ChemiDoc^TM MP (BIO-RAD, Hercules, CA, USA) gel imaging system. Total protein and gelatinase activity were quantified using Image Lab™ Software 6.1 (BIO-RAD, Hercules, CA, USA).

[2] = system: non-tumor HEK293T cell line; assay: MTS cell viability assay, HEK293T; assay type: cell-based, human; settings: for IC50: Homo sapiens, HEK-293T, 24 h treatment; for Selectivity Index: IC50 HEK293T divided by IC50 A375
Procedure: as §1, §2, §3

A375 cells = assay: TUNEL DNA fragmentation assay; assay type: cell-based, human; settings: 5 μM, 24 h
Procedure: To detect DNA fragmentation in A375 cells, a modified apoptosis TUNEL method was used with the MEBSTAIN Apoptosis TUNEL Kit Direct (MBL International Corporation, Woburn, MA, USA) according to the manufacturer’s protocol. Briefly, cells were grown in 8-well culture slides (Corning, NY, USA) and incubated with the compounds (5 μM) for 24 h. Following treatments, the cells were washed with PBS and subsequently stained with TdT buffer, TdT solution, and Propidium Iodide, according to the manufacturer’s instructions. Experiments were conducted by fluorescent microscopy. The images were collected by an EVOS M5000 microscope (Thermo Fisher Scientific, Waltham, MA, USA).

MMP-9 = assay: Gelatin zymography, MMP-9 in A375 conditioned media; assay type: cell-based, human; settings: A375 cells, 1 μM and 5 μM, 24 h
Procedure: as §4, §5

Structure (SMILES)	IC50 [1] [µM]	MMP-2 expression and activity (MMP-2)	IC50 ([2]; HEK293T cells, MTS) [µM]	Selectivity Index [2]	MMP-2 expression and activity (MMP-2; listed as RF-87A)	DNA fragmentation / TUNEL-positive apoptotic cells (A375 cells)	MMP-9 expression and activity (MMP-9)	cytotoxicity toward HEK293T cells ([2]; HEK293T cells, MTS)
O=C(N/N=C/c1c[nH]c2ncc(Br)cc12)c1ccc2c(c1)CCCC2 [RF-86A (2a), (E)-N-((5-Bromo-1H-pyrrolo[2,3-b]pyridin-3-yl)methylene)-5,6,7,8-tetrahydronaphthalene-2-carbohydrazide]	6.99	reduced	114	16.37	–	–	–	–
O=C(N/N=C/c1c[nH]c2ncc(Br)cc12)c1ccccn1 [RF-87A (2b), (E)-N-((5-Bromo-1H-pyrrolo[2,3-b]pyridin-3-yl)methylene)picolinohydrazide]	47.2	reduced	142	3.01	reduced MMP-2 activity only at the lower concentration (1 μM)	–	–	–
O=C(N/N=C/c1c[nH]c2ncc(Br)cc12)c1cnccn1 [RF-94A (2c), (E)-N-((5-Bromo-1H-pyrrolo[2,3-b]pyridin-3-yl)methylene)pyrazine-2-carbohydrazide]	53	reduced	25.8	0.49	–	higher number of apoptotic cells	–	–
O=C(N/N=C/c1c[nH]c2ncc(Br)cc12)c1cnc2ccccc2n1 [RF-94B (2d), (E)-N-((5-Bromo-1H-pyrrolo[2,3-b]pyridin-3-yl)methylene)quinoxaline-2-carbohydrazide]	46.3	–	25.5	0.55	–	–	–	–
CCCS(=O)(=O)Nc1ccc(F)c(C(=O)c2c[nH]c3ncc(-c4ccc(Cl)cc4)cc23)c1F [Vemurafenib]	7.68	–	> 1000	>1000	–	–	upregulated	no cytotoxicity
